This is an account of results in patent publication US20260176267A1, “PREPARATION OF IMIDAZOPYRIDINE AND IMIDAZOPYRIDAZINE DERIVATIVES AS NOVEL DIACYLGLYCERIDE O-ACYLTRANSFERASE 2 INHIBITORS” (Merck Sharp & Dohme LLC, priority 2022, published 2026).

The assay deals with T1, human DGAT2 (hDGAT2) (Homo sapiens, UniProt Q96PD7).
T1 construct: made in house; host or cells: Sf-9 insect cells (baculovirus), membrane fraction
T1 sequence (Q96PD7 1-388): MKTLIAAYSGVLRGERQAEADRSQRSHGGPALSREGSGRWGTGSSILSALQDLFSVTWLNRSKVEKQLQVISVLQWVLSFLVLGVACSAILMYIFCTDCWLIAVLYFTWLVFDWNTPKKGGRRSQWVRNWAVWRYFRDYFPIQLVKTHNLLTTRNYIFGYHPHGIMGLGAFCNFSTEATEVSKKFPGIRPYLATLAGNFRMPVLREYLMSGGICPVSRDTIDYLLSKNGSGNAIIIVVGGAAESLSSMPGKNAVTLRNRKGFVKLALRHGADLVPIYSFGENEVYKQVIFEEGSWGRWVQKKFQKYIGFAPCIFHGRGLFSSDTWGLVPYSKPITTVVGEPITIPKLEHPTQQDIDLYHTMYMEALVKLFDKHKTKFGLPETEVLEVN
The assay can be described thus: DGAT2 Enzymatic Activity Assay. Type of assay: biochemical. Particulars: membrane prep of Sf-9 cells expressing hDGAT2; 13C18-triolein product by LC/MS/MS; 25 μM diolein, 5 μM 13C oleoyl-CoA, rt. A digest of the protocol:
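Membranes from Sf-9 cells expressing untagged human DGAT2 (baculovirus, 48 h) used as enzyme at rt. The product ^13C18-triolein is quantified by LC/MS/MS against a ^13C21-triolein internal standard. Percent inhibition is taken from high and low controls, and IC50 is derived.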

Structures are written as SMILES. pIC50: −log10 of the molar value.

In general, pIC50 refers to the negative decadic logarithm of the IC50, by convention in mol/L. A high value points to a small IC50. Regarding `Cc1cc(Oc2ncc(Cl)cc2OCC(F)F)nn2cc(C(=O)NC3(C)CCS(=O)(=O)CC3)nc12` [Example 173, 6-[[5-chloro-3-(2,2-difluoroethoxy)-2-pyridyl]oxy]-8-methyl-N-(4-methyl-1,1-dioxo-thian-4-yl)imidazo[1,2-b]pyridazine-2-carboxamide], the pIC50 is 7.96.

In the case of `Cc1cc(Oc2ncc(F)cc2OCC(F)F)nn2cc(C(=O)N[C@H]3CCCC(F)(F)[C@@H]3O)nc12` [Example 174, N-((1S,2R)-3,3-difluoro-2-hydroxycyclohexyl)-6-((3-(2,2-difluoroethoxy)-5-fluoropyridin-2-yl)oxy)-8-methylimidazo[1,2-b]pyridazine-2-carboxamide], the pIC50 was 7.85. For the compound `CC1(NC(=O)c2nc3cc(Cl)c(Oc4ncc(Cl)cc4OCC(F)F)nn3c2Cl)CS(=O)(=O)C1` [Example 175, 3,7-dichloro-6-[[5-chloro-3-(2,2-difluoroethoxy)-2-pyridyl]oxy]-N-(3-methyl-1,1-dioxo-thietan-3-yl)imidazo[1,2-b]pyridazine-2-carboxamide], the pIC50 is 9.40. The same measure for `CC1(NC(=O)c2nc3ccc(Oc4ncc(Cl)cc4OCC(F)F)nn3c2Cl)CS(=O)(=O)C1` [Example 176, 3-chloro-6-[[5-chloro-3-(2,2-difluoroethoxy)-2-pyridyl]oxy]-N-(3-methyl-1,1-dioxo-thietan-3-yl)imidazo[1,2-b]pyridazine-2-carboxamide]: 7.62. The same measure for `CC1(NC(=O)c2nc3cc(Cl)c(Oc4nccnc4OCC(F)(F)F)nn3c2Cl)CCS(=O)(=O)CC1` [Example 177, 3,7-dichloro-N-(4-methyl-1,1-dioxo-thian-4-yl)-6-[3-(2,2,2-trifluoroethoxy)pyrazin-2-yl]oxy-imidazo[1,2-b]pyridazine-2-carboxamide]: 6.41; for `CC1(NC(=O)c2nc3ccc(Oc4nccnc4OCC(F)(F)F)nn3c2Cl)CCS(=O)(=O)CC1` [Example 178, 3-chloro-N-(4-methyl-1,1-dioxo-thian-4-yl)-6-[3-(2,2,2-trifluoroethoxy)pyrazin-2-yl]oxy-imidazo[1,2-b]pyridazine-2-carboxamide]: 5.40. For `CC1(NC(=O)c2nc3cc(Cl)c(Oc4ncc(Cl)cc4OCC(F)(F)F)nn3c2Cl)CS(=O)(=O)C1` [Example 179, 3,7-dichloro-6-[[5-chloro-3-(2,2,2-trifluoroethoxy)-2-pyridyl]oxy]-N-(3-methyl-1,1-dioxo-thietan-3-yl)imidazo[1,2-b]pyridazine-2-carboxamide] the value was 7.00; for `CC1(NC(=O)c2cn3nc(OCc4ncc(Cl)cc4OCC(F)F)ccc3n2)CCS(=O)(=O)CC1` [Example 180, 6-((5-Chloro-3-(2,2-difluoroethoxy)pyridin-2-yl)methoxy)-N-(4-methyl-1,1-dioxidotetrahydro-2H-thiopyran-4-yl)imidazo[1,2-b]pyridazine-2-carboxamide], 7.28. On to `CC1(NC(=O)c2cn3nc(OCc4c(F)cccc4OC(F)F)ccc3n2)CCS(=O)(=O)CC1` [Example 181, 6-[[2-(Difluoromethoxy)-6-fluoro-phenyl]methoxy]-N-(4-methyl-1,1-dioxo-thian-4-yl)imidazo[1,2-b]pyridazine-2-carboxamide], for which the pIC50 is 7.60. For `CC1(NC(=O)c2cn3nc(OCc4ncc(F)cc4OCC(F)(F)F)ccc3n2)CCS(=O)(=O)CC1` [Example 182, 6-[[5-Fluoro-3-(2,2,2-trifluoroethoxy)-2-pyridyl]methoxy]-N-(4-methyl-1,1-dioxo-thian-4-yl)imidazo[1,2-b]pyridazine-2-carboxamide] the value was 7.96. For `Cc1cn(C)nc1COc1ccc2nc(C(=O)NC3(C)CCS(=O)(=O)CC3)cn2n1` [Example 183, 6-((1,4-dimethyl-1H-pyrazol-3-yl)methoxy)-N-(4-methyl-1,1-dioxidotetrahydro-2H-thiopyran-4-yl)imidazo[1,2-b]pyridazine-2-carboxamide] the value was 6.09; for `CCOc1ccccc1Oc1ccc2nc(C(=O)N[C@H]3CCOC3)cn2c1` [Example 184, (S)-6-(2-ethoxyphenoxy)-N-(tetrahydrofuran-3-yl)imidazo[1,2-a]pyridine-2-carboxamide], 5.20.

For the compound `CC1(NC(=O)c2cn3cc(Oc4ncc(Cl)cc4OCC(F)(F)F)cnc3n2)CCS(=O)(=O)CC1` [Example 186, 6-((5-Chloro-3-(2,2,2-trifluoroethoxy)pyridin-2-yl)oxy)-N-(4-methyl-1,1-dioxidotetrahydro-2H-thiopyran-4-yl)imidazo[1,2-a]pyrimidine-2-carboxamide], the pIC50 is 7.48. This pIC50 is 2.28 log units higher than that of the compound before.
